Experimental data as given in publication PMC9858427, “Design, synthesis and biological evaluation of 2-((4-sulfamoylphenyl)amino)-pyrrolo[2,3-d]pyrimidine derivatives as CDK inhibitors” (Journal of Enzyme Inhibition and Medicinal Chemistry, 2023).

Key:
[1] = Body weight and H&E pathology of main organs in xenograft mice; type: in vivo, BALB/C nude mice; details: after 3-week treatment
Protocol: AsPC-1 (5 × 10^7) cells were injected subcutaneously into 5-week-old female BALB/C nude mice (Beijing Huafukang Bioscience CO. Inc, Beijing, China). After two weeks, mice were omogenizamised and treated with vehicle, gemcitabine (GCTB), or test compound. Blank solvent and test compound was administered by oral gavage (10 ml/kg) with once daily of five days and followed by 2 days off in each week, GCTB was given once a week by 50 mg/kg intraperitoneal injection. Mice were inspected daily for clinical signs, both tumour diameters and body weight were determined 3 times weekly. Tumour volumes were calculated according to the formula “tumor volume (V) = length × width^2/2”. Median TGI values were calculated as follows: TGI = 100 × [1-(Vtreated group at day20-Vtreated group at day1)/(Vvehicle group at day20-Vvehicle group at day1)]. Data were plotted as average with SD in the graphical representation of tumour growth. The p values obtained from the two-way ANOVA analysis. Meanwhile, main organs of mice were collected, formalin-fixed and paraffin-embedded for pathological analysis by H&E dyeing. For drug concentration determination, blood and tumour tissues were collected at indicated time after single administration. Standard curve of test compound was established in the acquisition mode of SIM using a SHIMADZU LC-MS instrument. Blood kept in anticoagulant tube coated with heparin sodium was centrifuged to provide the supernatant, which was followed by added with 3-fold acetonitrile to precipitate plasma protein. After centrifugation at 10 × 10^3 for 5 min, the supernatant was injected directedly into LC-MS instrument for quantification of drug concentration. As for tumour tissues, omogenizationation (Precellys Evolution) was done after weighed accurately and added with 3-fold saline. After centrifugation under same condition as plasma samples, supernatant was separated and injected into LC-MS for quantification.

[2] = tested on: AsPC-1; assay: MTT proliferation assay in AsPC-1 cells; type: cell-based; details: Homo sapiens, ASPC1; 72 h drug exposure
Protocol: (§1) The human pancreatic carcinoma MIA PaCa-2 was purchased from China Centre for Type Culture Collection, AsPC-1 and BxPC-3 cell Lines were purchased from Cell Centre of the Institute of Basic Medical Sciences, Chinese Academy of Medical Sciences and Peking Union Medical College. PANC-1 was kindly provided by Nankai Hospital (Tianjin, China). These cancer cell lines were cultured according to the manufacturer’s instruction.
(§2) Cells were planted in 96-well plates at a density of 3000–4000 cells per well and incubated at 37 °C in a humidified CO2 incubator for 24 h. Then 3-fold diluted concentrations of tested compound were added respectively which was dissolved by DMSO in the ratio of 1:1000. After indicated incubation period, MTT was added to each well and incubated for 4 h at 37 °C. Then, the supernatant was discarded gently, and the precipitate was dissolved in 100 µL of DMSO in each well. The absorbance (A) at 570 nm was detected with a microplate reader (Multiskan MK3; Thermo Fisher Scientific, MA, USA). Vehicle-treated cells were served as the control for the calculation of relative cell viability (%) of treated group at single concentration. IC50 value was calculated directly from the inhibition curve of serial dilution of test compound and was expressed as mean ± SD using the SPSS statistical software (SPSS17.0 Inc., Chicago, IL, USA).

[3] = tested on: AsPC-1 cell-derived xenograft; assay: AsPC-1 cell-derived xenograft mice model, in vivo efficacy; design: species or system BALB/C nude mice; details: GCTB 50 mg/kg intraperitoneal once a week, 3 weeks; vs vehicle group
Protocol: Synthetic compound was administered as a suspension or solution in the saline with 5% DMSO and 5% Solutol. GCTB was dissolved in saline. All of the experiments were approved by the Institutional Animal Care and Use Committee of Institute of Medicinal Biotechnology. All experiments were carried out under ethics committee–approved protocols and in compliance with the guidelines for the care of laboratory animals of Institute of Medicinal Biotechnology, CAMS.
AsPC-1 (5 × 10^7) cells were injected subcutaneously into 5-week-old female BALB/C nude mice (Beijing Huafukang Bioscience CO. Inc, Beijing, China). After two weeks, mice were omogenizamised and treated with vehicle, gemcitabine (GCTB), or test compound. Blank solvent and test compound was administered by oral gavage (10 ml/kg) with once daily of five days and followed by 2 days off in each week, GCTB was given once a week by 50 mg/kg intraperitoneal injection. Mice were inspected daily for clinical signs, both tumour diameters and body weight were determined 3 times weekly. Tumour volumes were calculated according to the formula “tumor volume (V) = length × width^2/2”. Median TGI values were calculated as follows: TGI = 100 × [1-(Vtreated group at day20-Vtreated group at day1)/(Vvehicle group at day20-Vvehicle group at day1)]. Data were plotted as average with SD in the graphical representation of tumour growth. The p values obtained from the two-way ANOVA analysis. Meanwhile, main organs of mice were collected, formalin-fixed and paraffin-embedded for pathological analysis by H&E dyeing. For drug concentration determination, blood and tumour tissues were collected at indicated time after single administration. Standard curve of test compound was established in the acquisition mode of SIM using a SHIMADZU LC-MS instrument. […] After centrifugation at 10 × 10^3 for 5 min, the supernatant was injected directedly into LC-MS instrument for quantification of drug concentration. […] After centrifugation under same condition as plasma samples, supernatant was separated and injected into LC-MS for quantification.

[4] = tested on: BxPC-3; assay: MTT proliferation assay in BxPC-3 cells; type: cell-based; details: Homo sapiens, 72 h drug exposure
Protocol: as §1, §2

[5] = tested on: MIA PaCa-2 cells; assay: MTT proliferation assay in MIA PaCa-2 cells; type: cell-based, human; details: Homo sapiens, MIA PaCa-2, 72 h, 72 h drug exposure
Protocol: as §1
as §2, with “Then” for “Cells were planted in 96-well plates at a density of 3000–4000 cells per well and incubated at 37 °C in a humidified CO2 incubator for 24 h. Then”

[6] = tested on: PANC-1; assay: MTT proliferation assay in PANC-1 cells; type: cell-based; details: Homo sapiens, 72 h drug exposure
Protocol: as §1, §2

[7] = target: T1, CDK9 (Homo sapiens, UniProt P50750); assay: CDK kinase screening at 1 μM, CDK9; type: biochemical; details: read-out: Inhibitory rate at 1μM: CDK9
T1 sequence (P50750 whole entry): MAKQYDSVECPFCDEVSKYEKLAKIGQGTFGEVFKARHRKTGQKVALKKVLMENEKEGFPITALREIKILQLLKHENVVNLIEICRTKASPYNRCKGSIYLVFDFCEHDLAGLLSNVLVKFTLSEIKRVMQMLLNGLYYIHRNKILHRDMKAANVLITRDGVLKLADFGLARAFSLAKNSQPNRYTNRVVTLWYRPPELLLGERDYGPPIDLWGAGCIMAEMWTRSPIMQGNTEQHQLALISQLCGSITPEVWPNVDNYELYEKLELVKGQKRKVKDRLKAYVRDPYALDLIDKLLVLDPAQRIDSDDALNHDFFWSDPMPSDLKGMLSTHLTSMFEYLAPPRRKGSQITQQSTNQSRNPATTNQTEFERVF
T1 sequence (O60563 whole entry partner): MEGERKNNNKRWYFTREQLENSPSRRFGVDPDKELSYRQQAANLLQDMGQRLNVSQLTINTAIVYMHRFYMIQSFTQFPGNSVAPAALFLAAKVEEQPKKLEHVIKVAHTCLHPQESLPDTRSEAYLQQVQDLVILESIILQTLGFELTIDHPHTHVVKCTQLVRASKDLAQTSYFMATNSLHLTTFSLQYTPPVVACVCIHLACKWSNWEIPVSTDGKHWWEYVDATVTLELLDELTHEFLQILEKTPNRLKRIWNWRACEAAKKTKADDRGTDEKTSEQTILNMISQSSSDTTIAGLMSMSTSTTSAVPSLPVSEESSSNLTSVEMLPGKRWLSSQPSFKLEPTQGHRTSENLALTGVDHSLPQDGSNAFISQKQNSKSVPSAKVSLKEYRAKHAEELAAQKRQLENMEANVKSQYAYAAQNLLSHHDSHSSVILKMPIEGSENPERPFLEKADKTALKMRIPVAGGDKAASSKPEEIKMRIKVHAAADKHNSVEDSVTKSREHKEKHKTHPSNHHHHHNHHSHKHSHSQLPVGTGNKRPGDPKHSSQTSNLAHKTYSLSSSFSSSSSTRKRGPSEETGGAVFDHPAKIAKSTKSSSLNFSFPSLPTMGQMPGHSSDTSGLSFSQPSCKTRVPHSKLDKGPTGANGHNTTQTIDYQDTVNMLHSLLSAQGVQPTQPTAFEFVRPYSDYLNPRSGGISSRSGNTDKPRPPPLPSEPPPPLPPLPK
Protocol: (§3) CDK kinase activity (IC50 values and inhibitory rate at single concentration) was measured using the kinase profiling services (Shanghai ChemPartner Co., Ltd). Compounds were sent to ChemPartner as a solution in DMSO at concentration of 10 mM.

[8] = target: T2, CDK1 (Homo sapiens, UniProt P06493); assay: CDK kinase screening at 1 μM, CDK1; type: biochemical; details: read-out: Inhibitory rate at 1μM: CDK1
T2 sequence (P06493 whole entry): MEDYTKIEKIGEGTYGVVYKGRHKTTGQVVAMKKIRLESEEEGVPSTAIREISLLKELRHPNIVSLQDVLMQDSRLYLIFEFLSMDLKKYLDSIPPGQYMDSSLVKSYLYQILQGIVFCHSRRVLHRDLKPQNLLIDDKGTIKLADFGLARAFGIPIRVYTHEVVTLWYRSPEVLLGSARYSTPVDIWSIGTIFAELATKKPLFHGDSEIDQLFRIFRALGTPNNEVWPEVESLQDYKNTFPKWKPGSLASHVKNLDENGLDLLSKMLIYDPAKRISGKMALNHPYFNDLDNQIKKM
T2 sequence (P14635 whole entry partner): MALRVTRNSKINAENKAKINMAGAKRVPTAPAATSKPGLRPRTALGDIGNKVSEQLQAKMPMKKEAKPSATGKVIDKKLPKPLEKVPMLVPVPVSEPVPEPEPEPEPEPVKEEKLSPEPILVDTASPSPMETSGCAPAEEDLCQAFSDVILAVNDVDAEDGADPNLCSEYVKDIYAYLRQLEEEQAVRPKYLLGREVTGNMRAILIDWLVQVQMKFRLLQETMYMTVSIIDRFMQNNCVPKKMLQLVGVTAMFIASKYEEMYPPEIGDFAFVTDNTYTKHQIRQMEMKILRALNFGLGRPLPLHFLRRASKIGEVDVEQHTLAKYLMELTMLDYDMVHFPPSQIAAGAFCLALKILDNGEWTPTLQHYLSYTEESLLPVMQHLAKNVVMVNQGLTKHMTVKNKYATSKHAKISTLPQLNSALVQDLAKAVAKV
Protocol: as §3

[9] = target: T3, CDK2 (Homo sapiens, UniProt P24941); assay: CDK kinase screening at 1 μM, CDK2; type: biochemical; details: read-out: Inhibitory rate at 1μM: CDK2
Protocol: as §3

[10] = target: T1, CDK9; assay: CDK9 kinase IC50, Mobility shift assay; type: biochemical
Protocol: as §3

[11] = target: T4, CDK7 (Homo sapiens, UniProt P50613); assay: CDK kinase screening at 1 μM, CDK7; type: biochemical; details: read-out: Inhibitory rate at 1μM: CDK7
T4 sequence (P50613 whole entry): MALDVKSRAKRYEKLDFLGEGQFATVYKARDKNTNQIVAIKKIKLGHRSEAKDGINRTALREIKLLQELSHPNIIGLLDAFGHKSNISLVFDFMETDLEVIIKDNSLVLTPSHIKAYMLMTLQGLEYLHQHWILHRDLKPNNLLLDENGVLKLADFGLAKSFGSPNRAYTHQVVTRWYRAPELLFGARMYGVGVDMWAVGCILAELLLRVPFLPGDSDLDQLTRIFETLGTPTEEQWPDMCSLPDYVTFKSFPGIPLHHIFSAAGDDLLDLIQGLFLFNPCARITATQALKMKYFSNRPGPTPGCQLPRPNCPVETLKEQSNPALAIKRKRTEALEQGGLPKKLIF
T4 sequence (P51946 whole entry partner): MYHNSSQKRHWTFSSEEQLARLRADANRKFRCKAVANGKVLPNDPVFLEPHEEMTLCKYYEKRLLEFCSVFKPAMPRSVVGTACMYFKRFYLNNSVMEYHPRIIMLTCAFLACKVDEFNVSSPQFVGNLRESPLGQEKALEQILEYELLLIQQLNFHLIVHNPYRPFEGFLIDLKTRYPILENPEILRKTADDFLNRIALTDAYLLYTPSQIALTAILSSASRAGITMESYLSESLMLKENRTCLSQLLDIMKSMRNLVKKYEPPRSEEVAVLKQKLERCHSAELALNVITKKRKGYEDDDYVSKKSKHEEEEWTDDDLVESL
T4 sequence (P51948 whole entry partner): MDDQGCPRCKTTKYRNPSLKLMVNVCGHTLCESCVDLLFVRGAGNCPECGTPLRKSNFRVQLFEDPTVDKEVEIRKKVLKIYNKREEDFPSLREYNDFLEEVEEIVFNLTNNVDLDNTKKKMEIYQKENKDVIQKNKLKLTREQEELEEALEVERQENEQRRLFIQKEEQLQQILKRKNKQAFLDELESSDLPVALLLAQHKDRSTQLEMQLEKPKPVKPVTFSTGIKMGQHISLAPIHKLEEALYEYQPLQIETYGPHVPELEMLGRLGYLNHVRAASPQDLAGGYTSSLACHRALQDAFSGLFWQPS
Protocol: as §3

[12] = target: CDK6 (Homo sapiens, UniProt Q00534); assay: CDK kinase screening at 1 μM, CDK6; type: biochemical; details: read-out: Inhibitory rate at 1μM: CDK6
Chain of CDK6 (Q00534 whole entry): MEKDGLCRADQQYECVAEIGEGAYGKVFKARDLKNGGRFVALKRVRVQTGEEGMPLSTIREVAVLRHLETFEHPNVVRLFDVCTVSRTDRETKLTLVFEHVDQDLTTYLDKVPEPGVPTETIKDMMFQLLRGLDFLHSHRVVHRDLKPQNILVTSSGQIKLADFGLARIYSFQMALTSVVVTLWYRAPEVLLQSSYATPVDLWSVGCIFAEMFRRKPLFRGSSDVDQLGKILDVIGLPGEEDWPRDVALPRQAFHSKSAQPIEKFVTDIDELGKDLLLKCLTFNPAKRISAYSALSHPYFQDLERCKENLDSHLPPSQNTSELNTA
Chain of CDK6 (P30281 whole entry partner): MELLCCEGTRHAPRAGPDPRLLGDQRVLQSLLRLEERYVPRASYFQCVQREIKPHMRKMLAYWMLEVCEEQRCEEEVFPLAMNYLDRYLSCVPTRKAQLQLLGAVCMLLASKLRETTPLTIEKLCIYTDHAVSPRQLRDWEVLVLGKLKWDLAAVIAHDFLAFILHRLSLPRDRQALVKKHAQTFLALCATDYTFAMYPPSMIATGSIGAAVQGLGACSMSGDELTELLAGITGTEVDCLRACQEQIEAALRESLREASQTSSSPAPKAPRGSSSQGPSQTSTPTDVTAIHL
Protocol: as §3

[13] = target: T3, CDK2; assay: CDK2 kinase IC50, Mobility shift assay; type: biochemical
Protocol: as §3

[14] = target: T5, CDK4 (Homo sapiens, UniProt P11802); assay: CDK4 kinase IC50, Mobility shift assay; type: biochemical
T5 sequence (P11802 whole entry): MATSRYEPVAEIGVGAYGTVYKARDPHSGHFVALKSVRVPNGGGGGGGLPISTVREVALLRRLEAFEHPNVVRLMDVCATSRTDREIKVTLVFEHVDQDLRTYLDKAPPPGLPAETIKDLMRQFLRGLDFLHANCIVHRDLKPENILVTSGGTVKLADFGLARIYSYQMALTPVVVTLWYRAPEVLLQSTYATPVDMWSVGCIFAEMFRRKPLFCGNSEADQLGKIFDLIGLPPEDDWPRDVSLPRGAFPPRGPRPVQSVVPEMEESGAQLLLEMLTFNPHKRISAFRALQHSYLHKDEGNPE
T5 sequence (P30281 whole entry partner): as the sequence (P30281 whole entry partner) above
Protocol: as §3

[15] = tested on: MIA PaCa-2 cells; design: method as in PMID 33316409; details: previous study ref 23; cited from earlier work
[16] = target: T4, CDK7; assay: CDK7 kinase IC50, Mobility shift assay; type: biochemical
Protocol: as §3

[17] = target: T5, CDK4; assay: CDK kinase screening at 1 μM, CDK4; type: biochemical; details: read-out: Inhibitory rate at 1μM: CDK4
Protocol: as §3

[18] = target: CDK3 (Homo sapiens, UniProt Q00526); assay: CDK kinase screening at 1 μM, CDK3; type: biochemical; details: read-out: Inhibitory rate at 1μM: CDK3
Protocol: as §3

[19] = target: CDK5 (Homo sapiens, UniProt Q00535); assay: CDK kinase screening at 1 μM, CDK5; type: biochemical; details: read-out: Inhibitory rate at 1μM: CDK5
Chain of CDK5 (Q00535 whole entry): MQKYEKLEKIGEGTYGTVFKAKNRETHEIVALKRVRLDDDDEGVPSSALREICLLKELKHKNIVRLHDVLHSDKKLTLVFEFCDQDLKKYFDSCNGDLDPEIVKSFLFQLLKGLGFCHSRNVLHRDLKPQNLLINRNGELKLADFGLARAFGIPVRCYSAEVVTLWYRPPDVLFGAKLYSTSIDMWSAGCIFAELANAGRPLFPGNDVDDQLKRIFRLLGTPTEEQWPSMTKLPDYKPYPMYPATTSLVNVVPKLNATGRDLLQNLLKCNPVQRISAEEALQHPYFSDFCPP
Chain of CDK5 (Q15078 99-307 partner limits assumed): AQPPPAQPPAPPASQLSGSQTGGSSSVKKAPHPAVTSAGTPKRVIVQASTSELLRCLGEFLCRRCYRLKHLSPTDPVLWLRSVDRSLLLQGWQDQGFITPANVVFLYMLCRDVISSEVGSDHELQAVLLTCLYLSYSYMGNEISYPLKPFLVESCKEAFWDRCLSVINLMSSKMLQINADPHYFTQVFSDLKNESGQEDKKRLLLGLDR
Protocol: as §3

[20] = target: CDK9/cyclinT1 (Homo sapiens, UniProt P50750); assay: CDK9/cyclinT1 Lance Ultra Assay, single concentration screen; type: biochemical; details: 50 nM, ATP concentration at Km, read-out: CDK9 inhibitory rate (%) @ 50nM
Chain of CDK9/cyclinT1 (P50750 whole entry): as the sequence (P50750 whole entry) above
Chain of CDK9/cyclinT1 (O60563 whole entry partner): as the sequence (O60563 whole entry partner) above
Protocol: as §3

[21] = target: CDK8 (Homo sapiens, UniProt P49336); assay: CDK kinase screening at 1 μM, CDK8; type: biochemical; details: read-out: Inhibitory rate at 1μM: CDK8
Protocol: as §3

[22] = target: T2, CDK1; assay: CDK1 kinase IC50, Mobility shift assay; type: biochemical
Protocol: as §3

## Nc1ccn([C@@H]2O[C@H](CO)[C@@H](O)C2(F)F)c(=O)n1 [GCTB, gemcitabine, reference compound]
[1]
  pathological change in main organs (H&E): no obvious pathological change
[2]
  IC50: 0.956 ± 0.14 µM
[3]
  tumour growth inhibition (TGI): 36%
[4]
  IC50: 0.388 ± 0.119 µM
[5]
  IC50: 1.04 ± 0.27 µM
[6]
  IC50: 5.79 ± 4.21 µM

## Cc1cc(C)nc(NS(=O)(=O)c2ccc(Nc3ncc4cc(C(=O)N(C)C)n(C5CCCC5)c4n3)cc2)n1 [compound 1]
[7]
  inhibition at 1 µM: 99%
[8]
  inhibition at 1 µM: 65.2%
[9]
  inhibition at 1 µM: 94.4%
[10]
  IC50: 5.6 nM
[11]
  inhibition at 1 µM: 5.3%
[12]
  inhibition at 1 µM: 78.1%
[13]
  IC50: 91.6 nM
[14]
  IC50: 89 nM
[15]
  effect on cell cycle: G2-arrested effect
[2]
  IC50: 2.6 ± 0.997 µM
[16]
  IC50: > 10000 nM
[17]
  inhibition at 1 µM: 89.2%
[18]
  inhibition at 1 µM: 84.5%
[19]
  inhibition at 1 µM: 72.1%
[4]
  IC50: 0.409 ± 0.06 µM
[20]
  inhibition at 0.05 µM: 98.6%
[21]
  inhibition at 1 µM: 0.8%
[5]
  IC50: 4.98 ± 2.68 µM
[6]
  IC50: 3.68 ± 2.5 µM
[22]
  IC50: 516 nM
